The text below walks through data of patent US20050170481A1, “Novel (d)-2-hydroxy-acid oxidase derived from microorganism and biochemical process for producing glyoxylic acid therewith” (priority 2002, published 2005).

In assay [1] the test system is (D)-2-hydroxy-acid oxidase (enzyme of the present invention). Briefly: Oxidase reaction activity (H2O2 / 4-AA / TOOS / POD, absorbance at 555 nm), substrate specificity. The assay is classed as biochemical, Arthrobacter sp. KNK-GA1 strain. Particulars: for Relative activity (%): Table 2, 30° C., 100 seconds; for activity of the (D)-2-hydroxy-acid oxidase for the substrate (in words): summary of Table 1. On the procedure:
The reaction activity of oxidase is basically measured by adding 0.1 ml of an enzyme solution to 0.9 ml of a 100 mM phosphate buffer (pH 7) having the composition below, and measuring an increase in absorbance at a wavelength of 555 nm at 30° C. In the present invention, when 1 μmol of H2O2 is produced for 1 minute, the enzyme activity is defined as 1 unit.
The enzymatic properties of the enzyme produced in Example 6 were measured.
(§1) The enzyme activity was basically measured by reacting 1.0 ml of a reaction solution containing 10 mM of a substrate such as glycolic acid, 0.67 mM of 4-AA, 1.09 mM of TOOS, 2 U/ml of POD, and 0.1 ml of an enzyme solution in a 100 mM phosphate buffer or Tris buffer at 30° C. for 100 seconds, and then measuring an increase in absorbance at a wavelength of 555 nm.

Assay [2] addresses T1, glycolate oxidase (produced by Sigma Corporation) derived from spinach (Spinacia oleracea, UniProt P05414).
T1 construct: purchased Sigma Corporation
T1 sequence (P05414 1-369): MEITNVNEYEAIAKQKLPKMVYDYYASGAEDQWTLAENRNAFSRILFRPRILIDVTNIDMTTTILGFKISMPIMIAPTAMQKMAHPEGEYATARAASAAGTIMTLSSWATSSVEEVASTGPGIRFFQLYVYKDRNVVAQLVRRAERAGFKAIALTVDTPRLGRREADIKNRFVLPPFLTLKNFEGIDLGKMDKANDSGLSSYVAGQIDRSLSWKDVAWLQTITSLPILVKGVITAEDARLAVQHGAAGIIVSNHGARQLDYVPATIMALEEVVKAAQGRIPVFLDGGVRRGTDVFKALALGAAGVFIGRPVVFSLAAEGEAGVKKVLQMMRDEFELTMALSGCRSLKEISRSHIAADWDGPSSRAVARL
Briefly: Substrate specificity of glycolate oxidase derived from spinach. Type of assay: biochemical. The procedure: In Table 1, the activity of each enzyme for glycolic acid is […] regarded as 100%.
as §1
The activity of glycolate oxidase (produced by Sigma Corporation) derived from spinach was examined for various 2-hydroxy acid compounds, and the results were compared with the results of the enzyme of the present invention produced in Example […].

Assay [3] deals with glycolate oxidase. To be noted: Table 1; activity for glycolic acid regarded as 100%; J. Biochem., 16, 1373-1378, 1984; cited from earlier work.
Assay [4] has as its system glycolate oxidase. To be noted: Table 1; activity for glycolic acid regarded as 100%; J. Phycol., 32, 790-798, 1996; cited from earlier work.
Assay [5] concerns lactic acid oxidase derived from soil gram-negative bacteria. To be noted: Appl. Biochem. Biotechnol., 56, 277-288, 1996; cited from earlier work.
Where [6] appears, read: Table 1, activity for glycolic acid regarded as 100%.

`CCCC(O)C(=O)O` (racemic) [DL-2-hydroxyvaleric acid]: the “Relative activity (%), Enzyme of this invention” value (shortened to “Relative activity (%), Enzyme”) in assay [1] (setting [6]) turned out to be 32%; in assay [1] (Table 3, Substrate 10 mM), 32%. Also, the “Relative activity (%)” value in assay [1] (Substrate 10 mM) was determined as 32%. The “Relative activity (%), Spinach” value was found to be 70% in assay [2] (setting [6]) and 70% in assay [2] (Table 3, Substrate 10 mM). The “Relative Activity (%), Lemna minor” value in the assay on glycolate oxidase [3] is on record as 52%. Further, in the assay on glycolate oxidase [4], the “Relative Activity (%), Spatoglossum pacificum” value is reported as 91%.
As to `O=C(O)C(O)CO` (racemic) [DL-glyceric acid], in assay [1] (Substrate 10 mM), the “Relative activity (%)” value is reported as 54%. Besides, the “Relative activity (%), Enzyme” value in assay [1] (Table 3, Substrate 10 mM) is on record as 54%. In assay [2] (Table 3, Substrate 10 mM), the “Relative activity (%), Spinach” value was found to be 76%.
For 1-propanol, the “Relative activity (%)” value in assay [1] (Substrate 10 mM) amounted to 0%.
As to `O=CC(=O)O` [Glyoxylic acid], the “Relative activity (%), Enzyme” value in assay [1] (setting [6]) is on record as 4%. Also, the “activity of the (D)-2-hydroxy-acid oxidase for the substrate (in words)” value (from here on “activity … (in words)”) in assay [1] is recorded as “relatively low activity”. Moreover, in assay [2] (setting [6]), the “Relative activity (%), Spinach” value is reported as 8%. In the assay with glycolate oxidase [3], the “Relative Activity (%), Lemna minor” value is reported as 35%. Also, the “Relative Activity (%), Spatoglossum pacificum” value with glycolate oxidase [4] is 14%.
With `CC(C)CC(O)C(=O)O` (racemic) [DL-2-hydroxyisocaproic acid], the “Relative activity (%), Enzyme” value in assay [1] (setting [6]) is 10%; in assay [1] (Table 3, Substrate 10 mM), 10%. Further, the “Relative activity (%)” value in assay [1] (Substrate 10 mM) was determined as 10%. For the same molecule, the “activity … (in words)” value in assay [1] is “shows activity”. The “Relative activity (%), Spinach” value in assay [2] (setting [6]) amounted to 51%; in assay [2] (Table 3, Substrate 10 mM), 51%.
In the case of `C[C@@H](O)C(=O)O` [D-lactic acid], the “Relative activity (%), Enzyme” value in assay [1] (setting [6]) amounted to 82%; in assay [1] (Table 3, Substrate 10 mM) it was 82%. Also, the “Relative activity (%)” value in assay [1] (Substrate 10 mM) is on record as 82%. Further, the “activity … (in words)” value in assay [1] is listed as “high activity”. Besides, the “Relative activity (%), Spinach” value in assay [2] (setting [6]) amounted to 0%; in assay [2] (Table 3, Substrate 10 mM), 0%. Also, the “Relative Activity (%), Lemna minor” value in the assay with glycolate oxidase [3] was 7%. The “Relative Activity (%), Spatoglossum pacificum” value with glycolate oxidase [4] is reported as 0%.
As to `O=C(O)CO` [Glycolic acid], the “Relative activity (%), Enzyme” value in assay [1] (setting [6]) was 100%; in assay [1] (Table 3, Substrate 10 mM) it was 100%. Also, in assay [1] (Substrate 10 mM), the “Relative activity (%)” value was found to be 100%. In assay [1], the “activity … (in words)” value is recorded as “high activity”. For the same molecule, the “Relative activity (%), Spinach” value in assay [2] (setting [6]) worked out at 100%; in assay [2] (Table 3, Substrate 10 mM), 100%. Besides, the “Relative Activity (%), Lemna minor” value in the assay with glycolate oxidase [3] was 100%. Further, the “Relative Activity (%), Spatoglossum pacificum” value with glycolate oxidase [4] is 100%.
In the case of `CO` [Methanol], the “Relative activity (%)” value in assay [1] (Substrate 10 mM) is on record as 0%.
On to `CCCCC(O)C(=O)O` (racemic) [DL-2-hydroxycaproic acid], for which the “Relative activity (%), Enzyme” value in assay [1] (setting [6]) stood at 7%; in assay [1] (Table 3, Substrate 10 mM) it was 7%. For the same molecule, in assay [1] (Substrate 10 mM), the “Relative activity (%)” value was 7%. Further, the “Relative activity (%), Spinach” value in assay [2] (setting [6]) was 29%; in assay [2] (Table 3, Substrate 10 mM), 29%. Moreover, in the assay with glycolate oxidase [3], the “Relative Activity (%), Lemna minor” value is recorded as 13%.
In the case of `O=C(O)CC(O)C(=O)O` (racemic) [DL-malic acid], the “Relative activity (%)” value in assay [1] (Substrate 10 mM) was 0%.
On the same count and under the same terms, with `O=C(O)CCO` [β-hydroxypropionic acid] the figure was 1%.
With `CCC(O)C(=O)O` (racemic) [DL-2-hydroxybutyric acid], the “Relative activity (%), Enzyme” value in assay [1] (setting [6]) amounted to 42%; in assay [1] (Table 3, Substrate 10 mM) it was 42%. Also, in assay [1] (Substrate 10 mM), the “Relative activity (%)” value is 42%. Further, the “Relative activity (%), Spinach” value in assay [2] (setting [6]) was found to be 71%; in assay [2] (Table 3, Substrate 10 mM), 71%. Further, in the assay on glycolate oxidase [3], the “Relative Activity (%), Lemna minor” value is on record as 57%. In the assay on glycolate oxidase [4], the “Relative Activity (%), Spatoglossum pacificum” value is given as 55%.
For `OCCO` [Ethylene glycol], the “Relative activity (%)” value in assay [1] (Substrate 10 mM) is on record as 0%.
Turning to `C[C@H](O)C(=O)O` [L-lactic acid], the “Relative activity (%), Enzyme” value in assay [1] (setting [6]) is recorded as 0%; in assay [1] (Table 3, Substrate 10 mM), 0%. In addition, the “Relative activity (%)” value in assay [1] (Substrate 10 mM) turned out to be 0%. The “activity … (in words)” value in assay [1] is listed as “no activity”. The “Relative activity (%), Spinach” value in assay [2] (setting [6]) stood at 81%; in assay [2] (Table 3, Substrate 10 mM), 81%. Further, the “Relative Activity (%), Lemna minor” value in the assay with glycolate oxidase [3] was 60%. For the same molecule, the “Relative Activity (%), Spatoglossum pacificum” value in the assay with glycolate oxidase [4] is recorded as 26%. The “activity for L-lactic acid as rate of the activity for D-lactic acid” value in assay [5] was 57%.
On to `CC(O)CO` (stereo not shown) [1,2-propanediol], for which, in assay [1] (Substrate 10 mM), the “Relative activity (%)” value is given as 0%.
On the same count and under the same terms, with `CCO` [Ethanol] the figure was 0%.
In the case of `CC(C)C[C@H](O)C(=O)O` [L-2-hydroxyisocaproic acid], the “Relative activity (%), Enzyme” value in assay [1] (setting [6]) is on record as 0%; in assay [1] (Table 3, Substrate 10 mM), 0%. Also, the “Relative activity (%)” value in assay [1] (Substrate 10 mM) amounted to 0%. For the same molecule, in assay [1], the “activity … (in words)” value is reported as “no activity”. Besides, the “Relative activity (%), Spinach” value was 68% in assay [2] (setting [6]) and 68% in assay [2] (Table 3, Substrate 10 mM). The “Relative Activity (%), Lemna minor” value in the assay with glycolate oxidase [3] is reported as 30%. For the same molecule, the “Relative Activity (%), Spatoglossum pacificum” value in the assay on glycolate oxidase [4] is listed as 77%.
For the molecule `CC(C)O` [2-propanol], the “Relative activity (%)” value in assay [1] (Substrate 10 mM) came to 0%.
The same measure, in the same setting: with `OCC(O)CO` [Glycerin] the figure was 0%.
